What all share (set-up): scale not given: the % may be the effect or the level left
The target of experiment [1] is Serine/threonine-protein kinase 38 (Homo sapiens) (UniProt Q15208). Nature of the experiment: Inhibition of human STK38 assessed as enzyme activity at 1 uM using KKRNRRLSVA as substrate preincubated for 20 mins followed by [gamma-33P]-ATP addition and measured after 120 mins by radiometric Hot-SpotSM Kinase assay relative to control.
The target of experiment [2] is T1, Mitogen-activated protein kinase kinase kinase 5 (Homo sapiens) (UniProt Q99683).
T1 sequence (whole entry): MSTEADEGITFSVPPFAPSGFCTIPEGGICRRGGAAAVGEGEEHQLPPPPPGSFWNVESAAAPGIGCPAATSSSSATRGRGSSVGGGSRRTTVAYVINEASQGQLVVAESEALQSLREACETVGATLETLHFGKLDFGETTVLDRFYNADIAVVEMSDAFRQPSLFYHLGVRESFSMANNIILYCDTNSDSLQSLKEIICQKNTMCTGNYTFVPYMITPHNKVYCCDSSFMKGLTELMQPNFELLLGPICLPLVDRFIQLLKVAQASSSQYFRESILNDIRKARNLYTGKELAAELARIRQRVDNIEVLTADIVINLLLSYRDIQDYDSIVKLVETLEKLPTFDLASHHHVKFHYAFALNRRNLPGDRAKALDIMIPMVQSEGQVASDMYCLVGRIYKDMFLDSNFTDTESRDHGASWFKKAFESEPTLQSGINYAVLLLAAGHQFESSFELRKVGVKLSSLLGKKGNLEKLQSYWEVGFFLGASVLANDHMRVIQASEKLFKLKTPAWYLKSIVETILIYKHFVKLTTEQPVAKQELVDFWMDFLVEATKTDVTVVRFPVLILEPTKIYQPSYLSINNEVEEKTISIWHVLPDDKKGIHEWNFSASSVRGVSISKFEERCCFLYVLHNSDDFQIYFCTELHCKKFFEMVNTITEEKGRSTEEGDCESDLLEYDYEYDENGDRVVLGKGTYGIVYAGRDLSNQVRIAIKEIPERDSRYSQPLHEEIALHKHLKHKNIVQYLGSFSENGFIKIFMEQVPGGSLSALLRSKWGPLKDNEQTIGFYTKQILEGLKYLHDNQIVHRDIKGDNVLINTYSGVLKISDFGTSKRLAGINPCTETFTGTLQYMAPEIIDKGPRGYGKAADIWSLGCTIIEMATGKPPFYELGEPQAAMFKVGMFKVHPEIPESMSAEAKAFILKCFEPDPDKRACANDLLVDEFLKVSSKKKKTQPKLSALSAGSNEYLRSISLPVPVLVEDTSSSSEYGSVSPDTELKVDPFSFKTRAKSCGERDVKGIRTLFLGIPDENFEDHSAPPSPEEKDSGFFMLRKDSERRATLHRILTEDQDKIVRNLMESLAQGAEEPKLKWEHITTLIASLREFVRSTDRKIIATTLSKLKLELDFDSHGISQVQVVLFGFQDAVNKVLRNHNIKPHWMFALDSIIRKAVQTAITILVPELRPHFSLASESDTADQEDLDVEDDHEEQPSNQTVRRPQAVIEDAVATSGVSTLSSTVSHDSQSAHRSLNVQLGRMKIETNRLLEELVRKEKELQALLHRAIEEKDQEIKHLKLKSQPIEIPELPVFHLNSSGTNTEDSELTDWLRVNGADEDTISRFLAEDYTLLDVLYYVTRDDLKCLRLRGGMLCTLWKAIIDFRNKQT
Kind of experiment: Inhibition of human ASK1 assessed as enzyme activity at 1 uM using myelin basic protein as substrate preincubated for 20 mins followed by [gamma-33P]-ATP addition and measured after 120 mins by radiometric Hot-SpotSM Kinase assay relative to control.

Experiment [3] concerns the target T2, Serine/threonine-protein kinase DCLK1 (Homo sapiens) (UniProt O15075).
T2 sequence (whole entry): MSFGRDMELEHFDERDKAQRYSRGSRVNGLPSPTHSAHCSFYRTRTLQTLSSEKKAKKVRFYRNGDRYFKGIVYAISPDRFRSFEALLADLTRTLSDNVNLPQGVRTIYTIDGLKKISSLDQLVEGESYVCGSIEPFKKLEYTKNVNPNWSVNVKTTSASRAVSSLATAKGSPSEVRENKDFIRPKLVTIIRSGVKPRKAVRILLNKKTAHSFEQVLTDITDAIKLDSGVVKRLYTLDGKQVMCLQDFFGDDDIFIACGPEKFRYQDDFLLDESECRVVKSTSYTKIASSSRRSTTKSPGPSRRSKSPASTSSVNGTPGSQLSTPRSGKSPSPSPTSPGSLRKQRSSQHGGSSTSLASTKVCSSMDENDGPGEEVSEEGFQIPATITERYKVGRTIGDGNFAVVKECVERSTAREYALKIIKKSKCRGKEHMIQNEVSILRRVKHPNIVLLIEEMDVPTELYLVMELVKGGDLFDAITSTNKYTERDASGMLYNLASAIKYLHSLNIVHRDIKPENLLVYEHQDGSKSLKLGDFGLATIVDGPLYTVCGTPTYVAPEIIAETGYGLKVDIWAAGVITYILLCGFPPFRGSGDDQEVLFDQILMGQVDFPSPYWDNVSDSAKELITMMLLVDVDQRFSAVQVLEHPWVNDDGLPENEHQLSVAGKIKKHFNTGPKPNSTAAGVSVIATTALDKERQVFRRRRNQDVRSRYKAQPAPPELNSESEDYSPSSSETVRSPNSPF
Kind of experiment: Inhibition of human DCAMKL1 assessed as enzyme activity at 1 uM using KKLNRTLSFAEPG as substrate preincubated for 20 mins followed by [gamma-33P]-ATP addition and measured after 120 mins by radiometric Hot-SpotSM Kinase assay relative to control.

The target of experiment [4] is Tyrosine-protein kinase FRK (Homo sapiens) (UniProt P42685). Nature of the experiment: Inhibition of human FRK assessed as enzyme activity at 1 uM using poly[Glu:Tyr] (4:1) as substrate preincubated for 20 mins followed by [gamma-33P]-ATP addition and measured after 120 mins by radiometric Hot-SpotSM Kinase assay relative to control.
Experiment [5] concerns the target Serine/threonine-protein kinase VRK2 (Homo sapiens) (UniProt Q86Y07). Kind of experiment: Inhibition of human VRK2 assessed as enzyme activity at 1 uM using casein as substrate preincubated for 20 mins followed by [gamma-33P]-ATP addition and measured after 120 mins by radiometric Hot-SpotSM Kinase assay relative to control.
Experiment [6] has as its target Leucine-rich repeat serine/threonine-protein kinase 2 (Homo sapiens) (UniProt Q5S007). Kind of experiment: Inhibition of human LRRK2 assessed as enzyme activity at 1 uM using RLGRDKYKTLRQIRQ as substrate preincubated for 20 mins followed by [gamma-33P]-ATP addition and measured after 120 mins by radiometric Hot-SpotSM Kinase assay relative to control.

Serine/threonine-protein kinase VRK2 (Homo sapiens), sequence (Q86Y07 whole entry): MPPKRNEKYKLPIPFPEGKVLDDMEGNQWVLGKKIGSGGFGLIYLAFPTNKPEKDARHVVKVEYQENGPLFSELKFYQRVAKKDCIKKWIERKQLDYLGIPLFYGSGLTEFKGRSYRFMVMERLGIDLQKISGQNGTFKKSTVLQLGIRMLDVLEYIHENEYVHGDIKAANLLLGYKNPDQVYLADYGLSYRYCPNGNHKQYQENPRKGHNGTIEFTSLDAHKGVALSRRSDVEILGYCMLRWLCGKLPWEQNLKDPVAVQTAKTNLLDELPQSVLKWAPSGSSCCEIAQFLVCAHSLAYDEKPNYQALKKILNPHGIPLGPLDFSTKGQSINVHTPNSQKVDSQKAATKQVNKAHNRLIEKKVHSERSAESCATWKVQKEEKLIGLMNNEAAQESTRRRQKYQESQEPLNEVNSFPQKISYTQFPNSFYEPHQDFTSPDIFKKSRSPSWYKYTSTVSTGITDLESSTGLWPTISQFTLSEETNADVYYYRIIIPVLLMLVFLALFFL
Serine/threonine-protein kinase 38 (Homo sapiens), sequence (Q15208 2-465 limits assumed): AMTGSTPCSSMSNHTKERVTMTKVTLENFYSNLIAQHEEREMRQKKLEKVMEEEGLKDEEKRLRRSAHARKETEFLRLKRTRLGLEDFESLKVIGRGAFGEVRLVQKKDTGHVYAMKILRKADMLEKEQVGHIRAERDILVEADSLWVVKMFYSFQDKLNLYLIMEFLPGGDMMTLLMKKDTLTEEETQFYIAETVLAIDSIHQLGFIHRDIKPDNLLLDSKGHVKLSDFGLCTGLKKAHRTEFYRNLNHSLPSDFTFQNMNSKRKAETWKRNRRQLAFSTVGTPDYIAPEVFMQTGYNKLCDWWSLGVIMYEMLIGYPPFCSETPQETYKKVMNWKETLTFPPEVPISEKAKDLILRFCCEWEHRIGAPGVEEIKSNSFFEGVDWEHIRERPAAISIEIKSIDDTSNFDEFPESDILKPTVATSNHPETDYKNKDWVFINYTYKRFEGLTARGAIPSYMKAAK
Tyrosine-protein kinase FRK (Homo sapiens), sequence (P42685 whole entry): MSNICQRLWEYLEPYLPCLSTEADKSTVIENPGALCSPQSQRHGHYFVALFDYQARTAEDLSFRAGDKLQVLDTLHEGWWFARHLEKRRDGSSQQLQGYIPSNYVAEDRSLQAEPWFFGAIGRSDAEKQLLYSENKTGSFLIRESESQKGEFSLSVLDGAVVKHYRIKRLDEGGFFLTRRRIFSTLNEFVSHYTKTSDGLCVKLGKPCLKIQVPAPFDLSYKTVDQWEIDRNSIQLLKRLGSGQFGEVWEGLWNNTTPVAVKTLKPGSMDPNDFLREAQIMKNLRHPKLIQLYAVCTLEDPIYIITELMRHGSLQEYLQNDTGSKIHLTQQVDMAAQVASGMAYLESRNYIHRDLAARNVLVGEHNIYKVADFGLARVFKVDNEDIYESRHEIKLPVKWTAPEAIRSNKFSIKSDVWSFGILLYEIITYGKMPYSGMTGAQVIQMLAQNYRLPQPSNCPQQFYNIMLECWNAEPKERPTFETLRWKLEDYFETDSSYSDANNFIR
Leucine-rich repeat serine/threonine-protein kinase 2 (Homo sapiens), sequence (Q5S007 whole entry): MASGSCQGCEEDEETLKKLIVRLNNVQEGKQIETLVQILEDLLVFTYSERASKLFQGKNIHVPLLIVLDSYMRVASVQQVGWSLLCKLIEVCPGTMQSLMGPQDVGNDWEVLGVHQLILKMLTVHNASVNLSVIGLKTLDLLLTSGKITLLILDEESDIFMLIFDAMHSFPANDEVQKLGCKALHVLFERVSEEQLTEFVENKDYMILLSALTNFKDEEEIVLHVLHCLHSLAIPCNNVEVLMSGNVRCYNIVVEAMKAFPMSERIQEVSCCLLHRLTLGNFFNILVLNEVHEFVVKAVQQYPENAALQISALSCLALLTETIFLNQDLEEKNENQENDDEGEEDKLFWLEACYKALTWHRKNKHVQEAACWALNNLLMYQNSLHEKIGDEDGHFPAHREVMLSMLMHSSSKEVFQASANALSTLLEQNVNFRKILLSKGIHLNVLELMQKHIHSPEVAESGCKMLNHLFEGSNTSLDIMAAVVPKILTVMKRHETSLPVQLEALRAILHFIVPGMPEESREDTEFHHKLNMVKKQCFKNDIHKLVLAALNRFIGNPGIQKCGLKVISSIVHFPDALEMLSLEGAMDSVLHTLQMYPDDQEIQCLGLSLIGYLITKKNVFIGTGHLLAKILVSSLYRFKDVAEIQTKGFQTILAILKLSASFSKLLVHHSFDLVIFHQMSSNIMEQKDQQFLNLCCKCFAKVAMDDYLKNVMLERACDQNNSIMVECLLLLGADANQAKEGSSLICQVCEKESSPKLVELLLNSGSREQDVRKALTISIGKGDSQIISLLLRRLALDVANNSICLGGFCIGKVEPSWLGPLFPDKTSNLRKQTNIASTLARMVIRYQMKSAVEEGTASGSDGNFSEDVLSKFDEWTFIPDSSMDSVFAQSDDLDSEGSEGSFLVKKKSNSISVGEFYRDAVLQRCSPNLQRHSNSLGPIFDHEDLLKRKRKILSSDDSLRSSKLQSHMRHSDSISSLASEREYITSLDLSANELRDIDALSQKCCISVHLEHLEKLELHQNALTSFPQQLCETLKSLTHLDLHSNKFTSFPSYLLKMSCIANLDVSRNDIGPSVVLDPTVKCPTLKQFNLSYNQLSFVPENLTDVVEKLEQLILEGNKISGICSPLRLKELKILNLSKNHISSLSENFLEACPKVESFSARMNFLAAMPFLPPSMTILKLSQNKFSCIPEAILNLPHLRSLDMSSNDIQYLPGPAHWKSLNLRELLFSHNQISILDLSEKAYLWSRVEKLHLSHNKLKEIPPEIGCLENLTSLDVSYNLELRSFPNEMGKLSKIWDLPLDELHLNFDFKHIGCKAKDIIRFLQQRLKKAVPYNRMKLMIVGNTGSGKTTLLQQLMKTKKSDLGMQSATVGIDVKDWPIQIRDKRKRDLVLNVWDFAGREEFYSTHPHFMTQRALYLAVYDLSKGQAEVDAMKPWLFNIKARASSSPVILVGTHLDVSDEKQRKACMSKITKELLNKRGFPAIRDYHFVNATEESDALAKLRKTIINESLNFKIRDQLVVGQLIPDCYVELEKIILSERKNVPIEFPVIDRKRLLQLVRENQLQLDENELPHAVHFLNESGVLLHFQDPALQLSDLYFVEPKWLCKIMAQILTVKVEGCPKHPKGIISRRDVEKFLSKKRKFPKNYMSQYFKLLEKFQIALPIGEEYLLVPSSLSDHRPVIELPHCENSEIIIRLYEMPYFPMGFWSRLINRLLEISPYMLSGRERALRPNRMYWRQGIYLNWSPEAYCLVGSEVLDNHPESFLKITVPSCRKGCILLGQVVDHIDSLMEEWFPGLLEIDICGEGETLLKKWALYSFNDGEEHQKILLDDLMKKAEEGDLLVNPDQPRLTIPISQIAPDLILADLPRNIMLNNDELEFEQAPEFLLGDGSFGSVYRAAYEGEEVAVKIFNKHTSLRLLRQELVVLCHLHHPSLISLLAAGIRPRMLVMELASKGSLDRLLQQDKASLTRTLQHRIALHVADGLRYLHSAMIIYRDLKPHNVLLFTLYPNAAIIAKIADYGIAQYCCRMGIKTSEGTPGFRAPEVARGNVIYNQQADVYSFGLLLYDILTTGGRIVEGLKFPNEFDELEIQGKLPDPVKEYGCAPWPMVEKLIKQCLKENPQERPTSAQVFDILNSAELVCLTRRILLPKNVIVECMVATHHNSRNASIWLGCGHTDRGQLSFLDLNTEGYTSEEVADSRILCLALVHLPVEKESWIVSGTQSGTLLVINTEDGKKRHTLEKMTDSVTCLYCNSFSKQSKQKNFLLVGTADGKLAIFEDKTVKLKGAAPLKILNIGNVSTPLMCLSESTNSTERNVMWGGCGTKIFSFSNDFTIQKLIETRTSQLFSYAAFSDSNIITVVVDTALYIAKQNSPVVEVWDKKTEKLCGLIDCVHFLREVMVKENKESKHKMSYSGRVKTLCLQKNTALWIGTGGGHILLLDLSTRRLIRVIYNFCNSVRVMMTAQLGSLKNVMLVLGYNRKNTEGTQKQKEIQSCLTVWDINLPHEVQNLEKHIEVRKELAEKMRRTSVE

On to `C[C@H](Nc1ncnc2nc[nH]c12)c1cc2cccc(Cl)c2c(=O)n1-c1ccccc1`, for which the Activity in experiment [1] was 86.5%; in experiment [2] it was 97.7%; in experiment [3], 89.4%; in experiment [4] it was 96.9%; in experiment [5], 88.3%; in experiment [6], 111%.

On to `CC[C@H](Nc1ncnc2[nH]cnc12)c1nc2cccc(F)c2c(=O)n1-c1ccccc1`, for which the Activity is 94.5% in experiment [1]; 102% in experiment [2]; 89.3% in experiment [3]; 94% in experiment [4]; 98.3% in experiment [5]; 99.7% in experiment [6].

Turning to `CC(C)Oc1ccc(-c2nn([C@@H](C)c3oc4ccc(F)cc4c(=O)c3-c3cccc(F)c3)c3ncnc(N)c23)cc1F` [UMBRALISIB], the Activity came out at 91.4% in experiment [1]; 98.4% in experiment [2]; 88.3% in experiment [3]; 95.3% in experiment [4]; 87% in experiment [5]; 107% in experiment [6].

The values are drawn from ChEMBL document CHEMBL5715954, “Silencing c-Myc translation as a therapeutic strategy through targeting PI3Kδ and CK1ε in hematological malignancies” (Blood, 2017).
